Like-named read-outs stand apart in the source and are kept apart here.
Legend:
CYP3A2 [1] = molecular target: T1, CYP3A2 (Rattus norvegicus, UniProt P05183); test: Inhibition of CYP3A2-mediated dexamethasone 6β-hydroxylation in rat liver microsomes (HPLC); conditions: for inhibition mode of CYP3A2 enzyme activity: Lineweaver–Burk plot, rat liver microsomes; for Vmax for 6β-hydroxylase / Clint (hepatic intrinsic clearance) for 6β-hydroxylase: dexamethasone substrate
T1 sequence (P05183 1-504): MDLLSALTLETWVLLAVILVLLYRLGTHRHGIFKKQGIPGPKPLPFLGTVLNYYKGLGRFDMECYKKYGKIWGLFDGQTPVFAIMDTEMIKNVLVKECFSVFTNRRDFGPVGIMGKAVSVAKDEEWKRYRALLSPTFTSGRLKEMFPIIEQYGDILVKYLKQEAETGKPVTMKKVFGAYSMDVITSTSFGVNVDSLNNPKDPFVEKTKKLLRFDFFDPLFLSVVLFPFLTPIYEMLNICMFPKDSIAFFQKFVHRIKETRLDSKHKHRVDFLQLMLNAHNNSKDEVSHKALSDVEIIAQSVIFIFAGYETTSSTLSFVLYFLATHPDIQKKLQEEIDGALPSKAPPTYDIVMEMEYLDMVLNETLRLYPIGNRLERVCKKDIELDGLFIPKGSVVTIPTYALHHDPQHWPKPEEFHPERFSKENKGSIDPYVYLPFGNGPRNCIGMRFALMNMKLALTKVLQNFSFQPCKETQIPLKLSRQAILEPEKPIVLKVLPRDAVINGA
Experimental: The rates of 6β-hydroxydexamethasone formation were determined using High-Performance Liquid Chromatography (HPLC) technique.
The percentage of organic solvent in the assay was not more than 1% v/v.
The quenched reaction masses were transferred to the new vials and substrate and metabolite were double extracted with ethyl acetate (3 mL) and diethyl ether (3 mL), respectively. The organic extracts were evaporated to dryness. The mobile phase (70% acetonitrile and 30% water, v/v) was used to dissolve the residues. Then, 10 µL of the solution was injected for HPLC analysis.
Analysis of variance (ANOVA) test was also performed (at 0.05 significance level).
Schwarz criterion (SC) and Akaike information criterion (AIC) were acquired from nonlinear regression analysis. IC50 values were calculated by nonlinear regression analysis and GraphPad Prism software was used for this purpose.
The Lineweaver–Burk plot was used to assess the inhibition parameters such as Km, Vmax, and Clint.

[2] = molecular target: fatty acid amide hydrolase; conditions: hydrolysis of arachidonoylethanolamide; cited from earlier work
cytokine expression = test system: cytokine expression; parameters: method as in PMID 31286365; conditions: in vitro; cited from earlier work
[3] = cited from earlier work
trimethadione metabolism = conditions: short-term administration in rats; cited from earlier work
ATPase = test system: ATPase; parameters: method as in PMID 2992525; conditions: in vitro, up to 60 min at pH 6.1 or pH 7.4; cited from earlier work
[4] = parameters: method as in PMID 29752643; conditions: several daily oral doses of omeprazole 40 mg; cited from earlier work
[5] = test system: bufuralol 1′-hydroxylation; parameters: method as in PMID 15258107; conditions: cited from earlier work
CYP3A4 = conditions: cited from earlier work
CYP3A2 [6] = molecular target: T1, CYP3A2; parameters: The pooled liver microsomes from male rats (Sprague Dawley) were purchased from Merck; tissue Merck; host or cells: pooled liver microsomes from male Sprague Dawley rats; conditions: previous study; cited from earlier work
COVID-19 = test system: COVID-19; parameters: method as in PMID 33732750; conditions: cited from earlier work
[7] = male, Sprague Dawley, rat, microsomes, pH 7.4

| SMILES | inhibition mode of CYP3A2 enzyme activity (CYP3A2 [1]) | Vmax for 6β-hydroxylase (CYP3A2 [1]; inhibitor 50 µM) | Vmax for 6β-hydroxylase (CYP3A2 [1]; inhibitor 100 µM) | IC50 (CYP3A2 [1]) | Ki (CYP3A2 [1]) | inhibition of CYP3A2 at concentrations lower than 30 µM (CYP3A2 [1]) | Clint (hepatic intrinsic clearance) for 6β-hydroxylase (CYP3A2 [1]; inhibitor 30 µM) | Vmax for 6β-hydroxylase (CYP3A2 [1]; inhibitor 30 µM) | Clint (hepatic intrinsic clearance) for 6β-hydroxylase (CYP3A2 [1]; inhibitor 50 µM) | Clint (hepatic intrinsic clearance) for 6β-hydroxylase (CYP3A2 [1]; inhibitor 100 µM) | further results |
| --- | --- | --- | --- | --- | --- | --- | --- | --- | --- | --- | --- |
| CC(C)Cc1ccc(C(C)C(=O)O)cc1 (stereo not drawn) [Ibuprofen, ibuprofen] | non-competitive | 0.0116 ± 0.608 × 10^−3 µM^−1∙min^−1 | 0.0099 ± 0.040 × 10^−3 µM^−1∙min^−1 | – | – | – | – | – | – | – | Vmax for 6β-hydroxylase (CYP3A2 [1]; inhibitor 200 µM): 0.0092 ± 0.100 × 10^−3 µM^−1∙min^−1; inhibition at 40 min, 50 µM (CYP3A2 [1]; [7]): 23 ± 4.34%; inhibition at 40 min, 100 µM (CYP3A2 [1]; [7]): 34.73 ± 0.336%; inhibition at 40 min, 200 µM (CYP3A2 [1]; [7]): 38.9 ± 0.476%; IC50 [2]: 270 µM; effect on cytokine expression (cytokine expression): no inhibitory effect; amounts found in plasma [3]: 49 to 242 µM; Cmax ([3]; read-out: peak plasma concentrations (Cmax), after two single doses of 200 mg from two different ibuprofen preparations): 110 to 150 µM; effect on trimethadione metabolism (trimethadione metabolism): did not affect |
| COc1ccc2[nH]c([S+]([O-])Cc3ncc(C)c(OC)c3C)nc2c1 (stereo not drawn) [Omeprazole, omeprazole] | uncompetitive | 0.0062 ± 0.473 × 10^−3 µM^−1∙min^−1 | 0.0042 ± 0.058 × 10^−3 µM^−1∙min^−1 | 78.35 ± 0.46 µM | 39.18 ± 0.23 µM | No inhibition | 0.0009 ± 0.091 × 10^−3 µM^−2∙min^−1 | 0.0080 ± 0.346 × 10^−3 µM^−1∙min^−1 | 0.0010 ± 0.093 × 10^−3 µM^−2∙min^−1 | 0.0011 ± 0.066 × 10^−3 µM^−2∙min^−1 | inhibition of the ATPase activity (ATPase): no substantial inhibition; effect on the pharmacokinetics of roxadustat [4]: no substantial effect; IC50 [5]: > 200 µM; therapeutic plasma concentration ([3]; no reference given): 1.1 to 2.0 µM; Cmax ([3]; several daily oral doses of 40 mg): 1207 ng/mL |
| CCC(CC)COC(=O)[C@H](C)N[P@](=O)(OC[C@H]1O[C@@](C#N)(c2ccc3c(N)ncnn23)[C@H](O)[C@@H]1O)Oc1ccccc1 [Remdesivir, remdesivir] | mixed | 0.0146 ± 0.586 × 10^−3 µM^−1∙min^−1 | 0.0132 ± 0.153 × 10^−3 µM^−1∙min^−1 | 45.007 ± 0.016 µM | 22.504 ± 0.008 µM | No inhibition | 0.0006 ± 0.011 × 10^−3 µM^−2∙min^−1 | 0.0122 ± 0.306 × 10^−3 µM^−1∙min^−1 | 0.0006 ± 0.018 × 10^−3 µM^−2∙min^−1 | 0.0010 ± 0.025 × 10^−3 µM^−2∙min^−1 | plasma concentration range ([3]; after a single dose of 3–225 mg): 0.1 to 7.3 µM; inhibition of CYP3A4 (CYP3A4): weak inhibitor |
| CC(=O)Oc1ccccc1C(=O)O [aspirin] | – | – | – | – | – | – | – | – | – | – | inhibition of CYP3A2 isoenzyme activity (CYP3A2 [6]): weak competitive inhibition |
| C[C@@H]1C[C@H]2[C@@H]3CCC4=CC(=O)C=C[C@]4(C)[C@@]3(F)[C@@H](O)C[C@]2(C)[C@@]1(O)C(=O)CO [dexamethasone] | – | – | – | – | – | – | – | – | – | – | reduction of death rate (COVID-19; nonventilated patients with supplemental oxygen): 20%; reduction of death rate (COVID-19; ventilated intensive care unit (ICU) patients): 35% |
